Key:
Assay type in all cases: physicochemical
[1] = Drying experiments of the amorphous phase under vacuum (5-7 mbar) at different temperatures and times, solid analyzed by PXRD; conditions: for Solid phase after drying under vacuum: PXRD
Protocol: (§1) Approximately 20 mg of the non manipulated samples were prepared in standard sample holders using two foils of polyacetate.
(§2) Powder diffraction patterns were acquired on a D8 Advance Series 2Theta/Theta powder diffraction system using CuKα-radiation in transmission geometry (Wavelength: 1.54060 Å). The system was equipped with a VANTEC-1 single photon counting PSD, a Germanium monochromator, a ninety positions auto changer sample stage, fixed divergence slits and radial soller. Programs used: Data collection with DIFFRAC plus XRD Commander V.2.5.1 and evaluation with EVA V.12.0.
In a second experiment, different portions of the amorphous phase were dried under vacuum conditions (5-7 mbar) at room temperature, 40° C. and 60° C. for different times (4, 8, 16 and 24 hours; table 6). Once the samples were dried, the solid was analyzed by PXRD. […] In the experiments performed at 40° C. the amorphous phase began to crystallize after 16 hours. In the experiments performed at 60° C. the amorphous phase began to crystallize after 8 hours and phase I could be clearly identified after 16 hours.

[2] = Drying experiments of the amorphous phase for four hours at different temperatures, solid analyzed by PXRD; conditions: for Solid phase after drying: PXRD
Protocol: as §1, §2
In order to test the stability of the amorphous phase and to investigate its stability, different portions of the amorphous phase were dried for four hours at different temperatures (table 5). Once the samples were dried the solid was analyzed by PXRD.

[3] = 1H NMR check of the stability of the salt in amorphous form samples; conditions: several samples of the amorphous form, CDCl3
Protocol: In addition, several samples of the amorphous form obtained were analyzed by ^1H NMR in order to check the stability of the salt (FIG. 2 is a ^1H NMR spectrum of the amorphous phase).
Proton nuclear magnetic resonance analyses were recorded in deuterated chloroform (CDCl3) in a Bruker Avance 400 Ultrashield NMR spectrometer, equipped with a z-gradient 5 mm BBO (Broadband Observe) probe with ATM and an automatic BACS-120 autosampler. Spectra were acquired solving 2-10 mg of sample in 0.6 mL of deuterated solvent.

## Cc1cc(OCCN2CCOCC2)nn1-c1ccc2ccccc2c1.Cl [amorphous phase, 4-[2-[[5-methyl-1-(2-naphthalenyl)-1H-pyrazol-3-yl]oxy]ethyl]morpholine hydrochloride]
[1]; Sample 10: vacuum 5-7 mbar, 23° C., 4 hours
  Solid phase after drying under vacuum: amorphous
[1]; Sample 11: vacuum 5-7 mbar, 23° C., 8 hours
  Solid phase after drying under vacuum: amorphous
[1]; Sample 12: vacuum 5-7 mbar, 23° C., 16 hours
  Solid phase after drying under vacuum: amorphous
[1]; Sample 13: vacuum 5-7 mbar, 23° C., 24 hours
  Solid phase after drying under vacuum: amorphous
[1]; Sample 14: vacuum 5-7 mbar, 40° C., 4 hours
  Solid phase after drying under vacuum: amorphous
[1]; Sample 15: vacuum 5-7 mbar, 40° C., 8 hours
  Solid phase after drying under vacuum: amorphous
[1]; Sample 16: vacuum 5-7 mbar, 40° C., 16 hours
  Solid phase after drying under vacuum: amorphous + phase I
[1]; Sample 17: vacuum 5-7 mbar, 40° C., 24 hours
  Solid phase after drying under vacuum: amorphous + phase I
[1]; Sample 18: vacuum 5-7 mbar, 60° C., 4 hours
  Solid phase after drying under vacuum: amorphous
[1]; Sample 19: vacuum 5-7 mbar, 60° C., 8 hours
  Solid phase after drying under vacuum: amorphous + phase I
[1]; Sample 20: vacuum 5-7 mbar, 60° C., 16 hours
  Solid phase after drying under vacuum: phase I
[1]; Sample 21: vacuum 5-7 mbar, 60° C., 24 hours
  Solid phase after drying under vacuum: phase I
[1]; vacuum 5-7 mbar, 40° C.
  Time after which the amorphous phase began to crystallize: 16 h
[1]; vacuum 5-7 mbar, 60° C.
  Time after which phase I could be clearly identified: 16 h
  Time after which the amorphous phase began to crystallize: 8 h
[1]; vacuum 5-7 mbar, room temperature, up to 24 hours
  Stability of the amorphous phase on drying under vacuum: did not change after drying
[2]; Sample 1: dried four hours at rt
  Solid phase after drying: amorphous
[2]; Sample 2: dried four hours at 40 °C
  Solid phase after drying: amorphous
[2]; Sample 3: dried four hours at 50 °C
  Solid phase after drying: amorphous
[2]; Sample 4: dried four hours at 60 °C
  Solid phase after drying: amorphous
[2]; Sample 5: dried four hours at 80 °C
  Solid phase after drying: amorphous + crystalline
[2]; Sample 6: dried four hours at 90 °C
  Solid phase after drying: amorphous + crystalline
[2]; Sample 7: dried four hours at 100 °C
  Solid phase after drying: phase I + crystalline
[2]; Sample 8: dried four hours at 110 °C
  Solid phase after drying: phase I
[2]; Sample 9: dried four hours at 120 °C
  Solid phase after drying: phase I
[2]; four hours at temperature higher than 100° C.
  Stability of the amorphous phase on drying: transformed clearly to phase I
[2]; temperatures over 60° C., four hours
  Stability of the amorphous phase on drying: transformed slightly to a crystalline phase, not clearly identified
[2]; temperatures up to 60° C. for four hours
  Stability of the amorphous phase on drying: amorphous phase was recovered
[3]
  Stability of the salt by 1H NMR: no signs of the lost of HCl or decomposition of the samples could be observed

Reference: patent US9428462B2, “4-[-2-[[5-methyl-1-(2-naphthalenyl)-1H-pyrazol-3-yl]oxy]ethyl]morpholine hydrochloride amorphous solid forms” (priority 2010, dated 2016)
